Test results from patent publication US9416127B2, “Triazole carboxamides and uses thereof” (Hoffmann-La Roche Inc., priority 2012, dated 2016).
Counter-ions that a name gives are not always drawn.

Experiments:
mouse TAAR1 = mouse TAAR1 (Mus musculus (Mouse), UniProt Q923Y8); assay: Radioligand binding assay on mouse TAAR1; conditions: mouse TAAR1, HEK-293 membranes; first value of mouse/rat cell
Protocol: (§1) Construction of TAAR Expression Plasmids and Stably Transfected Cell Lines
(§2) For the construction of expression plasmids the coding sequences of human, rat and mouse TAAR 1 were amplified from genomic DNA essentially as described by Lindemann et al.. The Expand High Fidelity PCR System (Roche Diagnostics) was used with 1.5 mM Mg^2+ and purified PCR products were cloned into pCR2.1-TOPO cloning vector (Invitrogen) following the instructions of the manufacturer. PCR products were subcloned into the pIRESneo2 vector (BD Clontech, Palo Alto, Calif.), and expression vectors were sequence verified before introduction in cell lines.
(§3) HEK293 cells (ATCC # CRL-1573) were cultured essentially as described by Lindemann et al. (2005). For the generation of stably transfected cell lines HEK293 cells were transfected with the pIRESneo2 expression plasmids containing the TAAR coding sequences (described above) with Lipofectamine 2000 (Invitrogen) according to the instructions of the manufacturer, and 24 hrs post transfection the culture medium was supplemented with 1 mg/ml G418 (Sigma, Buchs, Switzerland). After a culture period of about 10 d clones were isolated, expanded and tested for responsiveness to trace amines (all compounds purchased from Sigma) with the cAMP Biotrak Enzyme immunoassay (EIA) System (Amersham) following the non-acetylation EIA procedure provided by the manufacturer.
Radioligand Binding Assay on Mouse TAAR1
(§4) Membrane Preparation and Radioligand Binding.
(§5) HEK-293 cells stably expressing mouse TAAR1 were maintained at 37° C. and 5% CO2 in DMEM high glucose medium, containing fetal calf serum (10%, heat inactivated for 30 min at 56° C.), penicillin/streptomycin (1%), and 375 μg/ml geneticin (Gibco). Cells were released from culture flasks using trypsin/EDTA, harvested, washed twice with ice-cold PBS (without Ca^2+ and Mg^2+), pelleted at 1'000 rpm for 5 min at 4° C., frozen and stored at −80° C. Frozen pellets were suspended in 20 ml HEPES-NaOH (20 mM, pH 7.4) containing 10 mM EDTA and homogenized with a Polytron (PT 6000, Kinematica) at 14'000 rpm for 20 s. The homogenate was centrifuged at 48'000×g for 30 min at 4° C. Subsequently, the supernatant was removed and discarded, and the pellet resuspended in 20 ml HEPES-NaOH (20 mM, pH 7.4) containing 0.1 mM EDTA using the Polytron (20 s at 14'000 rpm). This procedure was repeated and the final pellet resuspended in HEPES-NaOH containing 0.1 mM EDTA and homogenized using the Polytron. Typically, aliquots of 2 ml membrane portions were stored at −80° C. With each new membrane batch the dissociation constant (Kd) was determined via a saturation curve. […] Nonspecific binding was defined as the amount of ^3[H]—(S)-4-[(ethyl-phenyl-amino)-methyl]-4,5-dihydro-oxazol-2-ylamine bound in the presence of 10 μM unlabeled ligand. All compounds were tested at a broad range of concentrations (10 pM to 10 μM) in duplicates. […] The 96 deep well plates were incubated for 1 hr at 4° C. Incubations were terminated by rapid filtration through Unifilter-96 plates (Packard Instrument Company) and glass filters GF/C (Perkin Elmer) presoaked for 1 hr in polyethylenimine (0.3%) and washed 3 times with 1 ml of cold binding buffer. After addition of 45 μl of Microscint 40 (PerkinElmer) the Unifilter-96 plate was sealed and after 1 hr the ratioactivity counted using a TopCount Microplate Scintillation Counter (Packard Instrument Company).

rat TAAR1 = rat TAAR1 (Rattus norvegicus (Rat), UniProt Q923Y9); assay: Radioligand binding assay on rat TAAR1; conditions: rat TAAR1, HEK-293 membranes; second value of mouse/rat cell
Protocol: as §1, §2, §3
Radioligand Binding Assay on Rat TAAR1
as §4
as §5, with “rat” for “mouse”, “[…]” for “pM”

Chain of mouse TAAR1 (Q923Y8 whole entry): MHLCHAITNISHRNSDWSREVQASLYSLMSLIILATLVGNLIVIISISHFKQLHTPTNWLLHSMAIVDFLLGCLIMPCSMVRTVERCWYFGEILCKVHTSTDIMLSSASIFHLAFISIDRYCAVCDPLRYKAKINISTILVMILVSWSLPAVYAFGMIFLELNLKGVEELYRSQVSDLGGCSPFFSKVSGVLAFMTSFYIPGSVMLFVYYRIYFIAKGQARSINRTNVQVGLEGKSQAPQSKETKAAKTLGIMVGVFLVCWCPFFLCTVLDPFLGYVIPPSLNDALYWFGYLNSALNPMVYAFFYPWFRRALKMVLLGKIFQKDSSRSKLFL
Chain of rat TAAR1 (Q923Y9 whole entry): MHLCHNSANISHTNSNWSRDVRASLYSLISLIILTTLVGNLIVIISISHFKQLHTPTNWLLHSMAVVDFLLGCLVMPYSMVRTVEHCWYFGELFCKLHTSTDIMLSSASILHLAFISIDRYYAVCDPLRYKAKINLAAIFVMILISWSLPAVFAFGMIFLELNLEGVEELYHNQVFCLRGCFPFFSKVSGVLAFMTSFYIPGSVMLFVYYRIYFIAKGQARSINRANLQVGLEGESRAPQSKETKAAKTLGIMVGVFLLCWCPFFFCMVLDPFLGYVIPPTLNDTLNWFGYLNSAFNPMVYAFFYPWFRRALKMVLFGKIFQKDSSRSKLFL

Row | SMILES | Ki (mouse TAAR1) [µM] | Ki (rat TAAR1) [µM]
1 | O=C(Nc1ccc(C2CCNC2)cc1)c1cn(-c2ccc(OC(F)F)cc2)nn1 (racemic) [Example 33, (RS)-1-(4-(Difluoromethoxy)phenyl)-N-(4-(pyrrolidin-3-yl)phenyl)-1H-1,2,3-triazole-4-carboxamide] | 0.0049 | 0.0189
2 | O=C(Nc1ccc(C2CCNC2)cc1)c1cnn(-c2ccccc2)n1 (racemic) [Example 34, (RS)-2-Phenyl-N-(4-(pyrrolidin-3-yl)phenyl)-2H-1,2,3-triazole-4-carboxamide] | 0.0032 | 0.001
3 | O=C(Nc1ccc(C2CCCNC2)cc1)c1cnn(-c2ccccc2)n1 (racemic) [Example 35, (RS)-2-Phenyl-N-(4-(piperidin-3-yl)phenyl)-2H-1,2,3-triazole-4-carboxamide] | – | 0.0017
4 | O=C(Nc1ccc([C@H]2CNCCO2)cc1)c1cnn(-c2ccccc2)n1 [Example 1, (S)—N-(4-(Morpholin-2-yl)phenyl)-2-phenyl-2H-1,2,3-triazole-4-carboxamide hydrochloride] | 0.0012 | 0.0013
5 | Cc1nn(-c2ccccc2)nc1C(=O)Nc1ccc([C@H]2CNCCO2)cc1 [Example 2, (S)-5-Methyl-N-(4-(morpholin-2-yl)phenyl)-2-phenyl-2H-1,2,3-triazole-4-carboxamide hydrochloride] | 0.0015 | 0.0008
6 | O=C(Nc1ccc([C@H]2CNCCO2)cc1)c1cnn(-c2ccc(Cl)cc2)n1 [Example 6, (S)-2-(4-Chlorophenyl)-N-(4-(morpholin-2-yl)phenyl)-2H-1,2,3-triazole-4-carboxamide hydrochloride] | 0.0004 | 0.0002
7 | Cc1nn(-c2ccccc2)nc1C(=O)Nc1ccc([C@@H]2CNCCO2)cc1 [Example 7, (R)-5-Methyl-N-(4-(morpholin-2-yl)phenyl)-2-phenyl-2H-1,2,3-triazole-4-carboxamide hydrochloride] | 0.0027 | 0.0002
8 | O=C(Nc1ccc([C@@H]2CNCCO2)cc1)c1cnn(-c2ccccc2)n1 [Example 8, (R)—N-(4-(Morpholin-2-yl)phenyl)-2-phenyl-2H-1,2,3-triazole-4-carboxamide hydrochloride] | 0.0014 | 0.0008
9 | O=C(Nc1ccc([C@H]2CNCCO2)cc1)c1cnn(-c2ccc(F)cc2)n1 [Example 9, (S)-2-(4-Fluorophenyl)-N-(4-(morpholin-2-yl)phenyl)-2H-1,2,3-triazole-4-carboxamide hydrochloride] | 0.0004 | 0.0006
10 | O=C(Nc1ccc([C@H]2CNCCO2)cc1)c1cnn(-c2ccc(C(F)(F)F)cc2)n1 [Example 10, (S)—N-(4-(Morpholin-2-yl)phenyl)-2-(4-(trifluoromethyl)phenyl)-2H-1,2,3-triazole-4-carboxamide hydrochloride] | 0.0004 | 0.0002
11 | O=C(Nc1ccc([C@H]2CNCCO2)cc1)c1cnn(-c2cccc(F)c2)n1 [Example 11, (S)-2-(3-Fluorophenyl)-N-(4-(morpholin-2-yl)phenyl)-2H-1,2,3-triazole-4-carboxamide hydrochloride] | 0.0003 | 0.0004
12 | O=C(Nc1ccc([C@H]2CNCCO2)cc1)c1cnn(-c2cccc(Cl)c2)n1 [Example 12, (S)-2-(3-Chlorophenyl)-N-(4-(morpholin-2-yl)phenyl)-2H-1,2,3-triazole-4-carboxamide hydrochloride] | 0.0002 | 0.0002
13 | O=C(Nc1ccc([C@H]2CNCCO2)cc1)c1cnn(-c2cccc(C(F)(F)F)c2)n1 [Example 13, (S)—N-(4-(Morpholin-2-yl)phenyl)-2-(3-(trifluoromethyl)phenyl)-2H-1,2,3-triazole-4-carboxamide hydrochloride] | 0.0003 | 0.0006
14 | O=C(Nc1ccc([C@H]2CNCCO2)cc1)c1cnn(-c2ccc(OC(F)(F)F)cc2)n1 [Example 15, (S)—N-(4-(Morpholin-2-yl)phenyl)-2-(4-(trifluoromethoxy)phenyl)-2H-1,2,3-triazole-4-carboxamide hydrochloride] | 0.0002 | 0.0001
15 | O=C(Nc1ccc([C@H]2CNCCO2)cc1)c1cnn(-c2ccc(OC(F)F)cc2)n1 [Example 16, (S)-2-(4-(Difluoromethoxy)phenyl)-N-(4-(morpholin-2-yl)phenyl)-2H-1,2,3-triazole-4-carboxamide hydrochloride] | 0.0003 | 0.0002
16 | Cc1ccc(-n2cc(C(=O)Nc3ccc([C@H]4CNCCO4)cc3)nn2)cc1 [Example 17, (S)—N-(4-(Morpholin-2-yl)phenyl)-1-p-tolyl-1H-1,2,3-triazole-4-carboxamide hydrochloride] | 0.0013 | 0.0174
17 | Cc1ccc(-n2ncc(C(=O)Nc3ccc([C@H]4CNCCO4)cc3)n2)cc1 [Example 18, (S)—N-(4-(Morpholin-2-yl)phenyl)-2-p-tolyl-2H-1,2,3-triazole-4-carboxamide hydrochloride] | 0.0007 | 0.0016
18 | COc1ccc(-n2cc(C(=O)Nc3ccc([C@H]4CNCCO4)cc3)nn2)cc1 [Example 19, (S)-1-(4-Methoxyphenyl)-N-(4-(morpholin-2-yl)phenyl)-1H-1,2,3-triazole-4-carboxamide hydrochloride] | 0.0016 | 0.0388
19 | COc1ccc(-n2ncc(C(=O)Nc3ccc([C@H]4CNCCO4)cc3)n2)cc1 [Example 20, (S)-2-(4-Methoxyphenyl)-N-(4-(morpholin-2-yl)phenyl)-2H-1,2,3-triazole-4-carboxamide hydrochloride] | 0.0014 | 0.0019
20 | CCOc1ccc(-n2cc(C(=O)Nc3ccc([C@H]4CNCCO4)cc3)nn2)cc1 [Example 21, (S)-1-(4-Ethoxyphenyl)-N-(4-(morpholin-2-yl)phenyl)-1H-1,2,3-triazole-4-carboxamide hydrochloride] | 0.0018 | 0.0293
21 | CCOc1ccc(-n2ncc(C(=O)Nc3ccc([C@H]4CNCCO4)cc3)n2)cc1 [Example 22, (S)-2-(4-Ethoxyphenyl)-N-(4-(morpholin-2-yl)phenyl)-2H-1,2,3-triazole-4-carboxamide hydrochloride] | 0.0008 | 0.001
22 | Cc1cccc(-n2ncc(C(=O)Nc3ccc([C@H]4CNCCO4)cc3)n2)c1 [Example 23, (S)—N-(4-(Morpholin-2-yl)phenyl)-2-m-tolyl-2H-1,2,3-triazole-4-carboxamide hydrochloride] | 0.0011 | 0.0005
